Laboratory results reported in publication PMC7377239, “Cardiovascular Effects of Polychlorinated Biphenyls and Their Major Metabolites” (Environmental Health Perspectives, 2020).
Counter-ions that a name gives are not always drawn. Like-named read-outs stand apart in the source and are kept apart here.

What was measured:
[1] = tested on: iCell endothelial cells (human iPSC-derived ECs); experiment: High-content imaging cytotoxicity in iCell endothelial cells, 24 h; assay type: cell-based; conditions: Homo sapiens, Endothelial cell, 24 hr; for viability at 0.1 µM / activity at 0.1 µM: 0.10 µM
Summary of the method: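 Human iPSC-derived endothelial cells (passages 1–5) were grown to a fibronectin-coated monolayer, then exposed 24 h at 37 °C with 0.5% DMSO vehicle. Staining was Hoechst 33342, MitoTracker Orange and calcein AM, read by high-content imaging. Point of departure came from 4-parameter logistic fits, with a 1-SD vehicle cutoff and 100 µM as the top concentration.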

HUVECs = experiment: High-content imaging cytotoxicity in HUVECs, 24 h; assay type: cell-based, human; conditions: Homo sapiens, HUVEC, 24 h, HUVEC; for viability at 0.01 µM / activity at 0.01 µM / viability at 0.1 µM / activity at 0.1 µM / viability at 1 µM / activity at 1 µM / viability at 10 µM / activity at 10 µM / viability at 100 µM / activity at 100 µM: 0.00 µM = 100.00; for viability at 0.1 µM / activity at 0.1 µM: 0.10 µM
Summary of the method: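 HUVECs (passages 1–5) grown to monolayer over 3–5 d, then exposed 24 h at 37°C, 5% CO2; stained with Hoechst 33342, MitoTracker Orange and calcein AM and imaged at 10×. Readouts normalized to 0.5% DMSO vehicle, four-parameter logistic fit; POD at one-SD cutoff, 100μM assigned when no response.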

[2] = iPSC-EC, 0.00 µM control = 100.00, read-out: endo.cyto.24hr
[3] = iPSC-EC, 0.00 µM control = 100.00, read-out: endo.mito.24hr
[4] = iPSC-EC, 0.00 µM control = 100.00, read-out: endo.mitoint.24hr
[5] = iPSC-EC, 0.00 µM control = 100.00, read-out: endo.nma.24hr
[6] = iPSC-EC, 0.00 µM control = 100.00, read-out: endo.tc.24hrs
[7] = HUVECs, 24 hr, read-out: huvec.cyto.24hr
[8] = HUVECs, 24 hr, read-out: huvec.mito.24hr
[9] = HUVECs, 24 hr, read-out: huvec.mitoint.24hr
[10] = HUVECs, 24 hr, read-out: huvec.nma.24hr
[11] = HUVECs, 24 hrs, read-out: huvec.tc.24hrs

O=S(=O)(O)Oc1ccc(-c2ccc(Cl)cc2)cc1 [4'-PCB 3 sulfate]
minimal effective concentration ([1]; endothelial cells (endo), cyto, read-out: POD endo.cyto.24hr): 100 µM
minimal effective concentration ([1]; endothelial cells (endo), mito, read-out: POD endo.mito.24hr): 100 µM
minimal effective concentration ([1]; endothelial cells (endo), mitoint, read-out: POD endo.mitoint.24hr): 100 µM
minimal effective concentration ([1]; endothelial cells (endo), nma, read-out: POD endo.nma.24hr): 100 µM
minimal effective concentration ([1]; endothelial cells (endo), tc, read-out: POD endo.tc.24hr): 100 µM
minimal effective concentration (HUVECs; cyto, 24 hr, read-out: POD huvec.cyto.24hr): 100 µM
minimal effective concentration (HUVECs; mito, 24 hr, read-out: POD huvec.mito.24hr): 100 µM
minimal effective concentration (HUVECs; mitoint, 24 hr, read-out: POD huvec.mitoint.24hr): 100 µM
minimal effective concentration (HUVECs; nma, 24 hr, read-out: POD huvec.nma.24hr): 100 µM
minimal effective concentration (HUVECs; tc, 24 hr, read-out: POD huvec.tc.24hr): 100 µM

O=S(=O)(O)Oc1ccc(-c2ccc(Cl)cc2)cc1 [4'-yl PCB 3 sulfate]
viability at 0.01 µM [1, 2]: 101%
activity at 0.01 µM [1, 3]: 101%
activity at 0.01 µM [1, 4]: 114%
activity at 0.01 µM [1, 5]: 99.9%
viability at 0.01 µM [1, 6]: 101%
viability at 0.1 µM [1, 2]: 101%
activity at 0.1 µM [1, 3]: 101%
activity at 0.1 µM [1, 4]: 103%
activity at 0.1 µM [1, 5]: 99.6%
viability at 0.1 µM [1, 6]: 101%
viability at 1 µM [1, 2]: 101%
activity at 1 µM [1, 3]: 101%
activity at 1 µM [1, 4]: 100%
activity at 1 µM [1, 5]: 98.8%
viability at 1 µM [1, 6]: 101%
viability at 10 µM [1, 2]: 101%
activity at 10 µM [1, 3]: 102%
activity at 10 µM [1, 4]: 98%
activity at 10 µM [1, 5]: 98.8%
viability at 10 µM [1, 6]: 101%
viability at 100 µM [1, 2]: 91.5%
activity at 100 µM [1, 3]: 91.9%
activity at 100 µM [1, 4]: 106%
activity at 100 µM [1, 5]: 104%
viability at 100 µM [1, 6]: 91.5%
minimal effective concentration ([1]; iPSC-EC, top concentration 100.00 µM, read-out: endo.cyto.24hr POD): 100 µM
minimal effective concentration ([1]; iPSC-EC, top concentration 100.00 µM, read-out: endo.mito.24hr POD): 100 µM
minimal effective concentration ([1]; iPSC-EC, top concentration 100.00 µM, read-out: endo.mitoint.24hr POD): 100 µM
minimal effective concentration ([1]; iPSC-EC, top concentration 100.00 µM, read-out: endo.nma.24hr POD): 100 µM
minimal effective concentration ([1]; iPSC-EC, top concentration 100.00 µM, read-out: endo.tc.24hrs POD): 100 µM
viability at 0.01 µM (HUVECs; [7]): 98.5%
activity at 0.01 µM (HUVECs; [8]): 97.5%
activity at 0.01 µM (HUVECs; [9]): 90.2%
activity at 0.01 µM (HUVECs; [10]): 99%
viability at 0.1 µM (HUVECs; [7]): 90.8%
activity at 0.1 µM (HUVECs; [8]): 89.7%
activity at 0.1 µM (HUVECs; [9]): 109%
activity at 0.1 µM (HUVECs; [10]): 102%
viability at 1 µM (HUVECs; [7]): 87.4%
activity at 1 µM (HUVECs; [8]): 86.3%
activity at 1 µM (HUVECs; [9]): 97.9%
activity at 1 µM (HUVECs; [10]): 100%
viability at 10 µM (HUVECs; [7]): 103%
activity at 10 µM (HUVECs; [8]): 103%
activity at 10 µM (HUVECs; [9]): 83.8%
activity at 10 µM (HUVECs; [10]): 97.1%
viability at 100 µM (HUVECs; [7]): 88.9%
activity at 100 µM (HUVECs; [8]): 87.6%
activity at 100 µM (HUVECs; [9]): 114%
activity at 100 µM (HUVECs; [10]): 97.7%
minimal effective concentration (HUVECs; HUVECs, 24 hr, top concentration 100.00 µM, read-out: huvec.cyto.24hr POD): 100 µM
minimal effective concentration (HUVECs; HUVECs, 24 hr, top concentration 100.00 µM, read-out: huvec.mito.24hr POD): 100 µM
minimal effective concentration (HUVECs; HUVECs, 24 hr, top concentration 100.00 µM, read-out: huvec.mitoint.24hr POD): 100 µM
minimal effective concentration (HUVECs; HUVECs, 24 hr, top concentration 100.00 µM, read-out: huvec.nma.24hr POD): 100 µM
viability at 0.01 µM (HUVECs; [11]): 98.5%
viability at 0.1 µM (HUVECs; [11]): 90.8%
viability at 1 µM (HUVECs; [11]): 87.4%
viability at 10 µM (HUVECs; [11]): 103%
viability at 100 µM (HUVECs; [11]): 88.9%
minimal effective concentration (HUVECs; HUVECs, 24 hrs, top concentration 100.00 µM, read-out: huvec.tc.24hrs POD): 100 µM
